PubChem BioAssay (NCI)
“And” between values parts separate entries of the source, which are not always exact repeats. Equal entries are not always repeated.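 All cell lines were grown in 96-well plates and treated with compound for 48 hours. GI50: concentration for 50% inhibition of growth. TGI is the concentration that stops growth completely.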

Tests used:
Assay in all cases: inhibition of tumour cell growth, NCI panel, 48 h
[1] = test system: 786-0 renal
[2] = test system: CAKI-1 renal
[3] = test system: COLO 205 colon
[4] = test system: EKVX NSCLC
[5] = test system: HL-60(TB) leukemia
[6] = test system: HT29 colon
[7] = test system: MDA-MB-231 breast
[8] = test system: PC-3 prostate
[9] = test system: RPMI-8226 leukemia
[10] = test system: SR leukemia

| Structure (SMILES) | GI50 [1] | TGI [1] | GI50 [2] | TGI [2] | GI50 [3] | TGI [3] | GI50 [4] | TGI [4] | GI50 [5] | TGI [5] | GI50 [6] | TGI [6] | GI50 [7] | TGI [7] | GI50 [8] | TGI [8] | GI50 [9] | TGI [9] | GI50 [10] | TGI [10] |
| --- | --- | --- | --- | --- | --- | --- | --- | --- | --- | --- | --- | --- | --- | --- | --- | --- | --- | --- | --- | --- |
| CC(C)OC(=O)OCOP(=O)(OCOC(=O)OC(C)C)C1CCCN(O)C1=O (stereo unspecified) | 0.407 µM | > 100 µM | 3.55 µM | > 100 µM | 3.71 µM | > 100 µM | 3.03 µM | > 100 µM | 2.48 µM | > 100 µM | 0.571 µM | > 100 µM | 0.632 µM | > 100 µM | 7.55 µM | > 100 µM | 0.737 µM | 14.5 µM | 1.25 µM | > 100 µM |
| Cc1ccccc1C1N=C2Oc3ccccc3C=C2C(=O)N1 (stereo unspecified) | 14.1 µM | > 100 µM | 5.46 µM | > 100 µM | 1.46 µM | 15 µM | – | – | 2.42 µM | 17.7 µM | 4.48 µM | > 100 µM | 1.81 µM | 33.3 µM | 0.86 µM | > 100 µM | 62.9 µM | > 100 µM | 14.5 µM | > 88.3 µM |
| CC(C)c1c(C(=O)Nc2ccccc2)c(-c2ccccc2)c(-c2ccc(F)cc2)n1CC[C@@H](O)C[C@@H](O)CC(=O)O | 22.3 µM | > 81.2 µM | 11.9 µM | 32.8 µM | 24.5 µM | > 78.9 µM | 49.4 µM | > 100 µM | 20.9 µM | > 96.7 µM | 50.3 µM | > 100 µM | 1.61 µM | 6.63 µM | 7.31 µM | > 100 µM | 16.6 µM | > 100 µM | 4.35 µM | 39 µM |
| CNC(=S)N/N=C/CSC/C=N/NC(=S)NC | > 100 µM | > 100 µM | > 100 µM | > 100 µM | > 100 µM | > 100 µM | – | – | > 62.3 µM | > 100 µM | – | – | > 100 µM | > 100 µM | > 100 µM | > 100 µM | > 100 µM | > 100 µM | 0.799 µM | > 100 µM |
| c1c[nH]c(CN2CCN(Cc3ncc[nH]3)CC2)n1 | – | > 100 µM | – | > 100 µM | – | > 100 µM | – | > 100 µM | – | > 100 µM | – | > 100 µM | – | > 100 µM | – | > 100 µM | – | > 100 µM | – | > 100 µM |
| COc1cc(C(=O)N[C@@H]2CCCN(C)C2)ccc1Nc1ncc2c(n1)N(C1CCCC1)CC(C)(C)C(=O)N2C | 0.308 µM | 6.43 µM | 0.984 µM | 19.7 µM | 0.0412 µM | 1.18 µM | 1.11 µM | 24 µM | 0.0266 µM | 0.0788 µM | 0.0363 µM | 6.46 µM | 1.56 µM | 15.6 µM | 0.0646 µM | 19.9 µM | 1.25 µM | 19.4 µM | 0.0369 µM | 2.49 µM |
| COc1cccc(-c2cc(-c3ccc(Nc4nc(Nc5ccc(Cl)cc5)nc(Nc5ccc(Cl)cc5)n4)cc3)nc(N)c2C#N)c1 | 1.77 µM | 3.43 µM | 1.23 µM | 5.09 µM | 1.63 µM | 3.39 µM | 4.79 µM | 16.3 µM | 0.838 µM | 8.23 µM | 3.96 µM | 35.8 µM | 1.74 µM | 5.43 µM | 2.01 µM | 12 µM | 1.77 µM | > 27.9 µM | 0.966 µM | 4.22 µM |
| Nc1nc(N)c2nc(CNc3ccc(C(=O)NC(CCC(=O)O)C(=O)O)cc3)cnc2n1 (stereo unspecified) | < 0.01 µM | > 100 µM | < 0.01 µM | > 100 µM | – | > 100 µM | 4.69 µM | > 100 µM | < 0.01 µM | > 100 µM | < 0.01 µM | > 100 µM | > 23.1 µM and 6.99 µM | > 100 µM | < 0.01 µM | > 100 µM | 0.0519 µM and 0.0313 µM | > 100 µM | < 0.01 µM | > 100 µM |
| O=C(N=Nc1c(O)[nH]c2c(Cl)cc(Cl)cc12)C(=O)Nc1cccc(C(F)(F)F)c1 | – | > 100 µM | – | > 100 µM | – | > 100 µM | – | > 100 µM | – | > 100 µM | – | > 100 µM | – | > 100 µM | – | > 100 µM | – | – | – | > 100 µM |
| N#CCC1CCN(c2nc(Nc3ccc(N4CCC(O)CC4)cc3)c3c(=O)[nH]ncc3n2)CC1 | 0.82 µM | > 100 µM | 0.312 µM | > 100 µM | 0.374 µM | – | 1.85 µM | > 100 µM | – | – | 0.283 µM | > 100 µM | 1.17 µM | > 100 µM | > 100 µM | > 100 µM | > 100 µM | > 100 µM | 0.288 µM | > 100 µM |
| CC1(C)N=C(N)N=C(N)N1c1cccc(CC(=O)Nc2ccccc2)c1 | 78.5 µM | > 100 µM | > 100 µM | > 100 µM | 47.3 µM | > 100 µM | > 100 µM | > 100 µM | 6 µM | > 100 µM | 2.35 µM | > 100 µM | > 100 µM | > 100 µM | 0.895 µM | > 100 µM | – | – | 2.53 µM | > 100 µM |
| FC(F)(F)c1ccc(-c2cnc(-c3nn[nH]n3)nc2NC2CCCCCC2)cc1 | > 10 µM | > 10 µM | > 10 µM | > 10 µM | > 10 µM | > 10 µM | – | – | > 10 µM | > 10 µM | > 10 µM | > 10 µM | > 10 µM | > 10 µM | > 10 µM | > 10 µM | > 10 µM | > 10 µM | > 10 µM | > 10 µM |
| CC(=O)Nc1ccc(S(=O)(=O)N2C(=O)CCC2C(=O)Nc2ccccc2)cc1 (stereo unspecified) | 1.42 µM | 13.3 µM | 0.46 µM | 17.5 µM | 0.872 µM | 4.38 µM | – | – | 1.64 µM | 15.2 µM | 2.06 µM | 19.4 µM | 1.38 µM | 9.49 µM | 1.08 µM | 15.7 µM | 0.83 µM | 15 µM | 0.913 µM | 12.1 µM |
| COc1cc(F)c(F)c(F)c1C(=O)c1cnc(NC2CCN(S(C)(=O)=O)CC2)nc1N | 1.64 µM | > 21.5 µM | 0.843 µM | 10.8 µM | 0.783 µM | 4.49 µM | – | – | 0.244 µM | 6.31 µM | 1.07 µM | 15.2 µM | 1.26 µM | 16 µM | 0.476 µM | 9.3 µM | 0.417 µM | 9.66 µM | 0.371 µM | > 10 µM |
